Test results from the NIST ThermoML archive (doi:10.1021/acs.jced.8b00201).
± gives the expanded uncertainty stated by the source.

Assay: xn = mol fraction of the nth substance listed
Conditions: 100 kPa, Liquid; for mass density: Vibrating tube method; for viscosity: Concentric cylinders viscometry

CCCCCCCCCO [nonan-1-ol] + O=C1CCCCC1
Conditions	mass density, 308.15 K [kg/m3]	mass density, 313.15 K [kg/m3]	mass density, 318.15 K [kg/m3]	mass density, 323.15 K [kg/m3]	viscosity, 313.15 K [mPa·s]	viscosity, 318.15 K [mPa·s]	viscosity, 323.15 K [mPa·s]
x2 = 0	817.1 ± 20	813.6 ± 20	810.1 ± 20	806.5 ± 20	5.6 ± 0.28	4.78 ± 0.24	4.1 ± 0.21
x2 = 0.0813	822.4 ± 20	818.9 ± 20	815.3 ± 20	811.6 ± 20	4.85 ± 0.24	4.18 ± 0.21	3.61 ± 0.18
x2 = 0.1582	827.9 ± 20	824.2 ± 20	820.5 ± 20	816.8 ± 20	4.2 ± 0.21	3.67 ± 0.18	3.2 ± 0.16
x2 = 0.2378	834 ± 20	830.2 ± 20	826.4 ± 20	822.7 ± 20	3.68 ± 0.19	3.22 ± 0.16	2.84 ± 0.14
x2 = 0.3573	844.3 ± 20	840.3 ± 20	836.4 ± 20	832.6 ± 20	3.04 ± 0.15	2.66 ± 0.13	2.4 ± 0.1
x2 = 0.4381	852 ± 20	847.9 ± 20	844 ± 20	840.1 ± 20	2.71 ± 0.14	2.37 ± 0.12	2.17 ± 0.11
x2 = 0.5589	865 ± 20	860.8 ± 20	856.7 ± 20	852.8 ± 20	2.33 ± 0.12	2.03 ± 0.1	1.9 ± 0.1
x2 = 0.6488	876 ± 20	871.6 ± 20	867.4 ± 20	863.6 ± 20	2.13 ± 0.11	1.85 ± 0.09	1.75 ± 0.09
x2 = 0.724	886.2 ± 20	881.8 ± 20	877.5 ± 20	873.7 ± 20	2.02 ± 0.1	1.77 ± 0.09	1.67 ± 0.08
x2 = 0.8481	905.2 ± 20	900.6 ± 20	896.3 ± 20	892.5 ± 20	1.81 ± 0.09	1.59 ± 0.08	1.49 ± 0.08
x2 = 0.9411	921.7 ± 20	917.1 ± 20	912.8 ± 20	908.9 ± 20	1.67 ± 0.08	1.5 ± 0.08	1.4 ± 0.07
